Source: article PMC6124754, “Characterization of new, efficient Mycobacterium tuberculosis topoisomerase-I inhibitors and their interaction with human ABC multidrug transporters” (PLoS ONE, 2018)
Values after ≈ are worked out from the molar mass of the structure shown. “Also recorded” adds a separate entry of the source. Where two headings read alike, the source gives them in different places.

Experiments:
[1] = target: T1, human ABCB1 (Homo sapiens, UniProt P08183); experiment: Cellular transport assay, Calcein-AM uptake in ABCB1-overexpressing PLB cells; format: cell-based; settings: for ABC transporter transport assay, ABCB1 (summary): S6 summary table; for Effect on ABCB1 mediated transport (in words): PLB cells, compound 5 μM; on ABC transporter transport assay, ABCB1 (summary): key: 0: no observed effect; +: effect observed in the assay; In the ATPase assay showing only inhibition, the - sign is applied
Experimental: (§1) For cellular transport assays, mammalian PLB (lymphoblastoid) cell lines, overexpressing ABCB1 or ABCG2 were used. The parental PLB cell line was purchased from ATCC, and ABCB1 or ABCG2 overexpressing cell lines were established by using lentiviral vectors for human ABC transporters as described earlier in [29]. The transport assays were carried out in 96-well plates. 1x10^5 cells were incubated in the presence of 0.1 μM Calcein-AM or 1 μM DCV (Dye Cycler Violet) for the ABCB1 and for the ABCG2 assays, respectively. The assay was performed in HPMI medium (NaCl 120 mM, KCl 5 mM, MgCl2 0.4 mM, CaCl2 0.04 mM, HEPES 10 mM, NaHCO3 10 mM, glucose 10 mM, Na2HPO4 5 mM; pH 7.4). Fluorescence of the cells was detected using a Victor X3 plate reader (for Calcein, exc. at 485 nm, em. at 535 nm) or the Enspire 2300 (Perkin Elmer) plate reader (for DCV, exc. at 360 nm, em. at 440 nm). Kinetics of fluorescence intensity changes were analyzed to determine relative inhibition, compared to that of a reference agent, providing full inhibition of the ABC transporter. Two of the Vichem compounds examined (VCC979812 and VCC38977) were not compatible with the DCV uptake assay because of their intrinsic fluorescence, therefore for these two compounds ABCG2 transport inhibition was characterized by following mitoxantrone uptake. Mitoxantrone uptake was measured by flow cytometry (BD FACSCanto at 633 nm) by 20 minutes incubation in the presence of 7.5 μM mitoxantrone. Each compound was measured in at least three independent experiments with three parallels in each case. DMSO, used as a solvent of compounds had no effect in this assay at the applied concentration.

[2] = target: T1, human ABCB1; experiment: Vanadate-sensitive ATPase activity assay in Sf9 membrane vesicles, ABCB1; format: biochemical; design: made in house; host or cells: Sf9 insect cells (baculovirus), membrane vesicles; ABCB1 ATPase Vmax: unit not given here; settings: for ABC transporter ATPase assay, ABCB1 (summary): S6 summary table; for ABCB1 ATPase, concentration at Vmax: concentration at which Vmax was seen; for ABCB1 ATPase Vmax: vanadate-sensitive ATPase, from dose-response curves, basal 5.7±0.7; for Effect on ABCB1-ATPase activity (in words): Sf9 membrane vesicles, 0.1–10 μM for the stimulation in b53; on ABC transporter ATPase assay, ABCB1 (summary): key: 0: no observed effect; +: effect observed in the assay; In the ATPase assay showing only inhibition, the - sign is applied
[3] = test system: H37Rv Mtb strain; experiment: H37Rv growth inhibition, resazurin reduction microplate assay (REMA); format: cell-based, Mycobacterium tuberculosis; settings: for MIC90: Mycobacterium tuberculosis, H37RV, read-out: MIC90 of compounds in H37Rv growth test; for MIC90 / MIC90 of compounds in H37Rv growth test: minimum concentration providing 90% growth inhibition, 20 to 0.04 μM, N.I. = no inhibition observed up to 20 μM; for Toxicity in H37Rv assay (summary): S6 summary table; for Growth inhibition of H37Rv mycobacteria (in words): tested up to 20 μM
[4] = test system: parental A431 cell line; experiment: Cytotoxicity, PrestoBlue 72 h, parental A431; format: cell-based, human; settings: Non-toxic = not toxic up to 20 μM; for IC50: read-out: Toxicity in parental A431 cell line, IC50
Experimental: (§2) The toxic effects of the selected MtTopo-I inhibitory Vichem compounds were tested in three cell lines, HFF (human foreskin fibroblast), HEK293 (human embryonic kidney) and A431 (human epidermoid carcinoma) cell lines, obtained from ATCC. Establishment of ABC transporter-expressing A431cell lines was achieved by retroviral transduction of the cells as described previously.
(§3) For cytotoxicity measurements the cells were seeded in a 96-well culture plate at 5,000 cells/well (A431, HEK293) or 6000 cells/well (HFF) and incubated overnight. […] After 72 hours of incubation viability was assessed by PrestoBlue® assay (Invitrogen). IC50 values were obtained by sigmoidal curve fitting in the GraphPad Prism software. All experiments were performed in triplicates and repeated at least in three independent experiments. DMSO, used as solvent of the compounds, had no effect on viability at the applied concentration.

[5] = target: T2, human ABCG2 (Homo sapiens, UniProt Q9UNQ0); experiment: Vanadate-sensitive ATPase activity assay in Sf9 membrane vesicles, ABCG2; format: biochemical; design: made in house; host or cells: Sf9 insect cells (baculovirus), membrane vesicles; ABCG2 ATPase, concentration at Vmax: unit not given here; settings: for ABC transporter ATPase assay, ABCG2 (summary): S6 summary table; for Effect on ABCG2-ATPase activity (in words): Sf9 membrane vesicles, 0.1–10 μM for stimulation, 50 μM for inhibition; for ABCG2 ATPase, concentration at Vmax: concentration at which Vmax was seen; for ABCG2 ATPase Vmax: vanadate-sensitive ATPase, from dose-response curves, basal 22±1.4
T2 sequence (Q9UNQ0 1-655): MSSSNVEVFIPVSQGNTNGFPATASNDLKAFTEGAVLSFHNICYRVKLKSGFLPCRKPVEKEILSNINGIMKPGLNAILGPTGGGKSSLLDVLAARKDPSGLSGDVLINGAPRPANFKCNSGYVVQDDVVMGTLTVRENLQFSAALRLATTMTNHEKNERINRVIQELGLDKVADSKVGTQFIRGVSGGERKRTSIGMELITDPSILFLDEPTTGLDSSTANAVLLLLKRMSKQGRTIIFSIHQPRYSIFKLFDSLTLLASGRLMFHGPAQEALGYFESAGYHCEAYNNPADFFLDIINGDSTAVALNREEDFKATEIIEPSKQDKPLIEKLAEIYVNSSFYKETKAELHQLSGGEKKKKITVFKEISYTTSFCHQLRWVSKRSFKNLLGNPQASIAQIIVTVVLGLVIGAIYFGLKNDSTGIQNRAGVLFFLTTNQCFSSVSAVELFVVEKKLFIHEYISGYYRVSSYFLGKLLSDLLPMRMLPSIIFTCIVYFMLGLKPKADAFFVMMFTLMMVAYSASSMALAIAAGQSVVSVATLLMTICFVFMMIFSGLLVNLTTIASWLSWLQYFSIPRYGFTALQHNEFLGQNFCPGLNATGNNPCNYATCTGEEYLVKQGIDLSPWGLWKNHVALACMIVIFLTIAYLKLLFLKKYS

[6] = test system: HEK293 cell line; experiment: Cytotoxicity, PrestoBlue 72 h, HEK293; format: cell-based, human; settings: for IC50: Homo sapiens, HEK293, Non-toxic = not toxic up to 20 μM, read-out: Toxicity in HEK293 cell line, IC50; for Toxicity in HEK293 cell line, IC50: Non-toxic = not toxic up to 20 μM
Experimental: as §2, §3

[7] = test system: ABCB1-overexpressing A431 cell line; settings: 72 h; for ABC transporter modified cytotoxicity, ABCB1 (summary): human
[8] = target: T3, MtTopo-I (Mycobacterium tuberculosis, UniProt P9WG49); experiment: DNA relaxation assay of supercoiled pUC18 DNA by MtTopo-I; format: biochemical; settings: minimum concentration providing complete inhibition
T3 construct: made in house; host or cells: E. coli

[9] = target: T2, human ABCG2; experiment: Cellular transport assay, DCV or mitoxantrone uptake in ABCG2-overexpressing PLB cells; format: cell-based; design: expressed in transfected cells; host or cells: PLB (human lymphoblastoid) cells, lentiviral transduction; settings: for ABC transporter transport assay, ABCG2 (summary): S6 summary table; for Effect on ABCG2 mediated transport (in words): PLB cells, compound 5 μM; on ABC transporter transport assay, ABCG2 (summary): key: 0: no observed effect; +: effect observed in the assay; In the ATPase assay showing only inhibition, the - sign is applied
Experimental: as §1

[10] = test system: HFF, HEK293 and A431 cell lines; format: cell-based, human
Experimental: as §2, §3

[11] = test system: ABCG2-overexpressing A431 cell line; settings: 72 h; for ABC transporter modified cytotoxicity, ABCG2 (summary): human
[12] = test system: HFF cell line; experiment: Cytotoxicity, PrestoBlue 72 h, HFF; format: cell-based, human; settings: Non-toxic = not toxic up to 20 μM; for IC50: read-out: Toxicity in HFF cell line, IC50
Experimental: as §2, §3

T1 sequence (P08183 whole entry): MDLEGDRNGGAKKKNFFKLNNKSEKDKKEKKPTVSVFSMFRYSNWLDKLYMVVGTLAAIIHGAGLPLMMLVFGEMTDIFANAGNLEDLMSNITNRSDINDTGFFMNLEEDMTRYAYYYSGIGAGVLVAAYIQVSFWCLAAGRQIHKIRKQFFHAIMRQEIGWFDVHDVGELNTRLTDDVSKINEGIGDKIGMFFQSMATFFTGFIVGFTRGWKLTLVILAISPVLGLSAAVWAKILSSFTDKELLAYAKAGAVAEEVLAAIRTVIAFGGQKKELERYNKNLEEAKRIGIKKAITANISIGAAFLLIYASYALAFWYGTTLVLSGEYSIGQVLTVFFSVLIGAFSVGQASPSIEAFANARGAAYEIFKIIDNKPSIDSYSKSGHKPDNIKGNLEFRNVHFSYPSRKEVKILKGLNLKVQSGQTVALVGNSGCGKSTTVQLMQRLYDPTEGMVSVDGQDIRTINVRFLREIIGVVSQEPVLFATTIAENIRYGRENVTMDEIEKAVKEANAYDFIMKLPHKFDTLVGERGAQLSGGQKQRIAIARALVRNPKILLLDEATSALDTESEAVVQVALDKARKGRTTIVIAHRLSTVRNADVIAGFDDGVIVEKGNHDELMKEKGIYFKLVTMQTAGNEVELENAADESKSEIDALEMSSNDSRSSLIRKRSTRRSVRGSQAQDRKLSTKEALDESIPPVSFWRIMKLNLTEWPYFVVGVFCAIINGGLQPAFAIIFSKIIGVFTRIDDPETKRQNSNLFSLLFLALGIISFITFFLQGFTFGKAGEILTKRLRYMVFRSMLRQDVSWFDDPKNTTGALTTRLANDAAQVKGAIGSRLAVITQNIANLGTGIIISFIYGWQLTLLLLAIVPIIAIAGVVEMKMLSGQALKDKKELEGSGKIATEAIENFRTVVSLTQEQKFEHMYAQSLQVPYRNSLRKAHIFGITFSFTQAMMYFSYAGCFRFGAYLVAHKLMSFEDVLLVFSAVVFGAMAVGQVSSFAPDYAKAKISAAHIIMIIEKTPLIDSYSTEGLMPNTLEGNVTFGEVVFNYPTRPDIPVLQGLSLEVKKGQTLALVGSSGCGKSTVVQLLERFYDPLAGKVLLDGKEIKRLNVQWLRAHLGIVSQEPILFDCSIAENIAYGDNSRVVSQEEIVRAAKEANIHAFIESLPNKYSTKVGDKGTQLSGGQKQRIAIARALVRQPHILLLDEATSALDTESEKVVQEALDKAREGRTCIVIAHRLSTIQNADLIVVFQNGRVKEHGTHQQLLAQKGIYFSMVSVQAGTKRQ
T3 sequence (P9WG49 whole entry): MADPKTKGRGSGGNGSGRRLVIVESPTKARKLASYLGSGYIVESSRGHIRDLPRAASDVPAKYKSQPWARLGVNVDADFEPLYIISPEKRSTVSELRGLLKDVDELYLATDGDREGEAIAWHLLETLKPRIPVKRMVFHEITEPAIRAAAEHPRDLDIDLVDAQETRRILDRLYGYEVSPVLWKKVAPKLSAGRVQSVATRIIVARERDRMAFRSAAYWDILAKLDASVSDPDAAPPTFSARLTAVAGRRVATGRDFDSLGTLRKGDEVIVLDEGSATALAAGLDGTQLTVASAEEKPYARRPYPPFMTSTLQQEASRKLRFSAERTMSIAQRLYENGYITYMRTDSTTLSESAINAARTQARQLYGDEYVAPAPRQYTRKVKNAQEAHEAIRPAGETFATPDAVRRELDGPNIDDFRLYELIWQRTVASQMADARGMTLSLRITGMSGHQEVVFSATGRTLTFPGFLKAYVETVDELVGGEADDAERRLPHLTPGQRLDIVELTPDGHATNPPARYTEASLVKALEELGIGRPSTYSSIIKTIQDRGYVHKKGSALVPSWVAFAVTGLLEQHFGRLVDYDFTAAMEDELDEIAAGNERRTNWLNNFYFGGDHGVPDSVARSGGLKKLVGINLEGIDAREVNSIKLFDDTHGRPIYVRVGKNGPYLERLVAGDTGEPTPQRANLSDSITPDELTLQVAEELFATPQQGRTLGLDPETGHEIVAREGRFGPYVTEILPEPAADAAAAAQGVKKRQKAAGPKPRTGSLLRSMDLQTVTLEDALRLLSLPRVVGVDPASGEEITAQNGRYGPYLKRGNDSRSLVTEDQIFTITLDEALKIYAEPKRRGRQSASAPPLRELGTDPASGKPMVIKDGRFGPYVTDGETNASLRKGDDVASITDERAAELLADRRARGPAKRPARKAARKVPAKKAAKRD

Structure (SMILES)	ABC transporter transport assay, ABCB1 (summary) [1]	ABC transporter ATPase assay, ABCB1 (summary) [2]	ABCB1 ATPase, concentration at Vmax [2] [µM]	ABCB1 ATPase Vmax [2]	Toxicity in H37Rv assay (summary) [3]	IC50 ([4]; Homo sapiens, A-431, 72 h) [µM]	ABC transporter ATPase assay, ABCG2 (summary) [5]	Effect on ABCG2-ATPase activity (in words) [5]	ABCG2 ATPase, concentration at Vmax [5]	ABCG2 ATPase Vmax [5]	Complete inhibition of MtTopoI [8] [µM]	ABC transporter transport assay, ABCG2 (summary) [9]	Toxicity in human cell lines (in words) [10]	MIC90 of compounds in H37Rv growth test [3]	Toxicity in parental A431 cell line, IC50 [4]	Toxicity in HEK293 cell line, IC50 [6]	Toxicity in mammalian cell lines (summary) ([10]; human, 72 h)	Toxicity in HFF cell line, IC50 [12]	Effect on ABCB1-ATPase activity (in words) [2]	further results
COc1ccc(/C=C/c2nc(NCCCN3CCOCC3)c3cc4ccccc4cc3n2)cc1 [VCC478498]	+	0	6.25	7.2±1.8	+	< 5	-	only an inhibition	2	21.5±2.4	10 to 25	+	toxic							MIC90 [3]: 0.6 µM (≈ 0.273 µg/mL); Growth inhibition of H37Rv mycobacteria (in words) [3]: effectively inhibited the growth; IC50 [4]: 3.03 µM; IC50 [6]: 10 to 20 µM; ABC transporter modified cytotoxicity, ABCB1 (summary) [7]: 0; Toxicity in mammalian cell lines (summary) [10]: +; ABC transporter modified cytotoxicity, ABCG2 (summary) [11]: 0; IC50 ([12]; Homo sapiens, HFF): < 5 µM; IC50 [12]: 2.5 to 5 µM
Brc1c2ccccc2c(Br)c2nc(-c3ccco3)c(-c3ccco3)nc12 [VCC450327]	0		0.19	9.6±1.3	0				0.4	27.2±0.8	0.1	+	non-toxic	N.I.	Non-toxic	Non-toxic	0	Non-toxic		Effect on ABCB1 mediated transport (in words) [1]: no effect; Effect on ABCG2 mediated transport (in words) [9]: only moderately influence; also recorded: only a slight effect
CC(C)CCNc1nc2cc3ccccc3cc2nc1NCCC(C)C [VCC979812]	+	+	12.5	15.8±2	0	19	0		0.4	22±3	10	+		N.I.		Non-toxic	0/slight		well measurable stimulatory effect; also recorded: slightly increased	Resistance modulation by ABCB1 (fold increase in IC50) ([7]; ABCB1-expressing versus parental A431 cells): 1.1±0.08; ABC transporter modified cytotoxicity, ABCB1 (summary) [7]: 0; Resistance modulation by ABCG2 (fold increase in IC50) ([11]; ABCG2-expressing versus parental A431 cells): 1±0.1; ABC transporter modified cytotoxicity, ABCG2 (summary) [11]: 0; IC50 ([12]; Homo sapiens, HFF): 20 µM
O=c1c(O)c(-c2ccc(O)c(O)c2)oc2cc(O)cc(O)c12 [quercetin, reference compound]										38.5±1										
Cc1ccc(-n2nc(C(C)(C)C)cc2Nc2nc3ccccc3nc2NCCCO)cc1 [VCC389777]	+	+	12.5	14.4±1.5	0		+	significantly stimulated; also recorded: slightly increased	0.4	32.0±3.6	7.5 to 10	+	non-toxic	N.I.	Non-toxic	Non-toxic	0	Non-toxic	well measurable stimulatory effect	Effect on ABCB1-ATPase activity (in words) ([2]; listed as VCC38977): slightly increased
Cc1ccc(C)c(SCc2nc3cc4ccccc4cc3nc2CSc2cc(C)ccc2C)c1 [VCC891909]	0	0	3	7.8±1.2	+		0	no measurable effect	0.01	25.3±5	7.5 to 10	0			Non-toxic	Non-toxic	0	Non-toxic+	no measurable effect	Effect on ABCB1 mediated transport (in words) [1]: no such transporter inhibitory effect; MIC90 [3]: 10.4 µM (≈ 5 µg/mL); Growth inhibition of H37Rv mycobacteria (in words) [3]: Mtb growth inhibitory effect; Effect on ABCG2 mediated transport (in words) [9]: no such transporter inhibitory effect
CCc1c2c(nc3ccc(OC(=O)N4CCC(N5CCCCC5)CC4)cc13)-c1cc3c(c(=O)n1C2)COC(=O)[C@]3(O)CC [Irinotecan, reference compound]						8.6												Non-toxic		IC50 [6]: 2.5 µM
